This test deals with T1, TRIB2 (Homo sapiens, UniProt Q92519).
T1 sequence (Q92519 1-343): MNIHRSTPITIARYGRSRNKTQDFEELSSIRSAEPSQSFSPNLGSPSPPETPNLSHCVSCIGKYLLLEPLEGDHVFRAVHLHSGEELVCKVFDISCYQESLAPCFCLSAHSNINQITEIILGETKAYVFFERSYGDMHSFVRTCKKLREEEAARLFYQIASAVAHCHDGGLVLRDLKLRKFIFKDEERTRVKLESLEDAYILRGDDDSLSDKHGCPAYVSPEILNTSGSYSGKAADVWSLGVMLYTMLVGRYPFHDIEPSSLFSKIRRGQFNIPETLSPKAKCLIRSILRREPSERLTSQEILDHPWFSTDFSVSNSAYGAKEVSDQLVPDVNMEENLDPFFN
As to the kind of experiment: radiometric […]-ATP kinase assay with recombinant human TRIB2; supported by CETSA in PC3 cells. The test is classed as biochemical.

By IC50 is commonly meant the concentration that inhibits the measured activity by half. Regarding `O=C1CCC(N2C(=O)c3ccc(NCCCCCCCCCC(=O)N4CCc5ccc(NC(=O)c6n[nH]c7ccc(-c8cccnc8F)cc67)cc5C4)cc3C2=O)C(=O)N1` (centres unmarked) [5k, N-(2-(10-((2-(2,6-dioxopiperidin-3-yl)-1,3-dioxoisoindolin-5-yl)amino)-decanoyl)-1,2,3,4-tetrahydroisoquinolin-7-yl)-5-(2-fluoropyridin-3-yl)-1H-indazole-3-carboxamide], the IC50 was determined as 65.2 nM.
For `O=C(Nc1ccc2c(c1)CNCC2)c1n[nH]c2ccc(-c3cccnc3F)cc12` [compound 1, 5-(2-fluoropyridin-3-yl)-N-(1,2,3,4-tetrahydroisoquinolin-7-yl)-1H-indazole-3-carboxamide] the value was 0.74 nM.

The values are drawn from paper PMC12135709, “Discovery of the First Selective and Potent PROTAC Degrader for the Pseudokinase TRIB2” (European journal of medicinal chemistry, 2024).
